Literature values as cited in patent US20240307482A1, “TOPICAL COMPOSITIONS” (Illustris Pharmaceuticals, Inc., priority 2019, published 2024).

Test system: wrinkles
Settings: formulations with 10% concentration acetyl hexapeptide; after 30 days of trial use

For acetyl hexapeptide-3, which “reduce the depth of wrinkles” value is on record?
Its value is “up to 30%”.
